Assays:
[1] = Safety, adverse events; format: in vivo, human; conditions: of 11 patients
[2] = erlotinib 150 mg daily with sorafenib; cycle 1 days +15, 16, 22, 29
[3] = phase I trial of sorafenib plus gefitinib; cited from earlier work
[4] = Sorafenib plasma pharmacokinetics in patients, with and without erlotinib; format: in vivo, human; conditions: for Cmax / Tmax / AUC: human, plasma, oral
[5] = test system: RAF signal transduction capacity (MEK1/2 phosphorylation) in monocytes; assay: MEK1/2 pShift assay; format: cell-based, human; conditions: patient 5, one sample, after 7 days of sorafenib (25.9% before sorafenib)
[6] = test system: incurable solid tumor; assay: Tumor response; format: in vivo, human; conditions: per patient

mean trough erlotinib concentration (Css,min) [2]	SMILES	patients needing at least 1 dose delay [1]	patients with doses delivered in full throughout the study [1]	patients with doses reduced [1]	patients with drug discontinued [1]	change of gefitinib Cmax and AUC in the presence of sorafenib [3]	differences in PK variables of sorafenib in the presence or absence of erlotinib ([4]; day −2 vs day +15, Wilcoxon signed rank test)	Cmax [4]	Tmax [4]	AUC ([4]; 150 mg)	AUC ([4]; 400 mg)	Cmax ([4]; 400 mg bid)	Tmax ([4]; 400 mg bid)	additional monocytes shifted to the upper gate with IL3 versus vehicle (pShift) [5]	TTP [6]
around 500 ng/ml	C#Cc1cccc(Nc2ncnc3cc(OCCOC)c(OCCOC)cc23)c1 [erlotinib]	7 patients	6 patients	2 patients	3 patients										
	COc1cc2ncnc(Nc3ccc(F)c(Cl)c3)c2cc1OCCCN1CCOCC1 [gefitinib]					decrease									
	CNC(=O)c1cc(Oc2ccc(NC(=O)Nc3ccc(Cl)c(C(F)(F)F)c3)cc2)ccn1 [sorafenib]	Nine	4 patients	7 patients			No statistically significant differences	8600 ng/mL	4 h	53200 ng·h/mL	70900 ng·h/mL	8600 ng/mL	4.2 h	0.7%	15 days
